{"source": "paper PMC9532703", "about": "“A novel small molecule RK-019 inhibits FGFR2-amplification gastric cancer cell proliferation and induces apoptosis in vitro and in vivo” (Frontiers in Pharmacology, 2022)", "test_in_all_cases": "Kinase selectivity panel", "assay_type_in_all_cases": "biochemical", "conditions_in_all_cases": "read-out: Inhibition(%) @ 1 µM RK-019", "key": {"AAK1(h)": {"molecular_target": "T1, AAK1(h) (Homo sapiens, UniProt Q2M2I8)", "T1 construct": "purchased Eurofins Discovery Services (KinaseProfiler)", "description": "(§1) Median-inhibitory concentration (IC50) and inhibition ratio of kinases by RK-019 was assessed by Eurofins Discovery Services (Dundee, United Kingdom) using the ATP-site competition binding assay in vitro. Firstly, gradient concentration of RK-019 against FGFRs, including FGFR1, FGFR2, FGFR3, and FGFR4, were tested. IC50 value was calculate by the GraphPad Prism software (v8.4.3, GraphPad Software, California, United States). Then, to measure the selectivity prolife of RK-019, a panel of 422 recombinant human kinases was screened at a concentration of 1 µM RK-019. Kinase MAP was drawn by webtools from Cell Signaling Technology, Inc. (www.cellsignal.com)."}, "ALK(h)": {"molecular_target": "T2, ALK(h) (Homo sapiens, UniProt Q9UM73)", "T2 construct": "purchased Eurofins Discovery Services (KinaseProfiler)", "T2 sequence (Q9UM73 19-1620)": "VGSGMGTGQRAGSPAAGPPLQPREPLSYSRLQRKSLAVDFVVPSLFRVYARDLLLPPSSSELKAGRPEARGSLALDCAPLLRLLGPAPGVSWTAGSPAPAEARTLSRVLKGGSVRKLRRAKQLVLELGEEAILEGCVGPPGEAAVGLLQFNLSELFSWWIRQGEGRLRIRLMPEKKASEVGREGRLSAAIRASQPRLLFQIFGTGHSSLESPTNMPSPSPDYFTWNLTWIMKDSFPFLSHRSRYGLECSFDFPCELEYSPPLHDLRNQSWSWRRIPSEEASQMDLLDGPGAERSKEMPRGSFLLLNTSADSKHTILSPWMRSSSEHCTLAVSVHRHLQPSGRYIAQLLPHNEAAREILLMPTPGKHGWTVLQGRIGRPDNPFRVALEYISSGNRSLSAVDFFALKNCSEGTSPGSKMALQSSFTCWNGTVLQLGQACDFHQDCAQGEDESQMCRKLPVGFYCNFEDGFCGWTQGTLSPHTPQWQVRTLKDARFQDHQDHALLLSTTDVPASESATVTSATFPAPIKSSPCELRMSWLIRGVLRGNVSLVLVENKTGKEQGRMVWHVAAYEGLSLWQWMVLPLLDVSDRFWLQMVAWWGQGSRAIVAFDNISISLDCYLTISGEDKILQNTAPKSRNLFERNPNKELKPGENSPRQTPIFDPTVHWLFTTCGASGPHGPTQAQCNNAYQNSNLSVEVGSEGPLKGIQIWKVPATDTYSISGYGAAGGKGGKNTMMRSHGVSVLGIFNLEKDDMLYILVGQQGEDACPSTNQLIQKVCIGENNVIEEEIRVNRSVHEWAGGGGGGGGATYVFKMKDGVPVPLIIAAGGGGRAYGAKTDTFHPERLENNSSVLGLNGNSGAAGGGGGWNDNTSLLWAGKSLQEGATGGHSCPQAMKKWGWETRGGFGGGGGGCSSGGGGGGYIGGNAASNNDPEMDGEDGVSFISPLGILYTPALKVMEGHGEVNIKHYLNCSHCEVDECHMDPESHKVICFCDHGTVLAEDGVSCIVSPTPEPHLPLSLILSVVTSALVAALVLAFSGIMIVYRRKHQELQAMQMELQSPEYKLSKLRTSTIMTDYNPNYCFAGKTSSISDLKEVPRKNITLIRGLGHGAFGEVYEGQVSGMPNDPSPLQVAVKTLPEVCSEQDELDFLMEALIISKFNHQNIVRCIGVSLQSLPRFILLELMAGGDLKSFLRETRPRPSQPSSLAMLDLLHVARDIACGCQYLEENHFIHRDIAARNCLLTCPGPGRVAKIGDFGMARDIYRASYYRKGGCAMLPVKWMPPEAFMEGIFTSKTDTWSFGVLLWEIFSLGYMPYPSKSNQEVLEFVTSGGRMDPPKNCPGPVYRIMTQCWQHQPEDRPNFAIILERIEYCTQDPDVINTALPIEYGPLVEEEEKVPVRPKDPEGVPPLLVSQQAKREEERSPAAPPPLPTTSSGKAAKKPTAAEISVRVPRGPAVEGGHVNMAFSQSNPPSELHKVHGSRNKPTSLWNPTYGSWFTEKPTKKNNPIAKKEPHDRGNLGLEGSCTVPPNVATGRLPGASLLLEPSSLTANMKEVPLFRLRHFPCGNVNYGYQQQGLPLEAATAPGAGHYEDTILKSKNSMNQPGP", "description": "as §1"}, "ARK5(h)": {"molecular_target": "T3, ARK5(h) (Homo sapiens, UniProt O60285)", "T3 construct": "purchased Eurofins Discovery Services (KinaseProfiler)", "description": "as §1"}, "Bmx(h)": {"molecular_target": "T4, Bmx(h) (Homo sapiens, UniProt P51813)", "T4 construct": "purchased Eurofins Discovery Services (KinaseProfiler)", "description": "as §1"}, "CHK2(I157T)(h)": {"molecular_target": "T5, CHK2(I157T)(h) (Homo sapiens, UniProt O96017, I157T)", "T5 construct": "purchased Eurofins Discovery Services (KinaseProfiler)", "T5 sequence (O96017 whole entry I157T)": "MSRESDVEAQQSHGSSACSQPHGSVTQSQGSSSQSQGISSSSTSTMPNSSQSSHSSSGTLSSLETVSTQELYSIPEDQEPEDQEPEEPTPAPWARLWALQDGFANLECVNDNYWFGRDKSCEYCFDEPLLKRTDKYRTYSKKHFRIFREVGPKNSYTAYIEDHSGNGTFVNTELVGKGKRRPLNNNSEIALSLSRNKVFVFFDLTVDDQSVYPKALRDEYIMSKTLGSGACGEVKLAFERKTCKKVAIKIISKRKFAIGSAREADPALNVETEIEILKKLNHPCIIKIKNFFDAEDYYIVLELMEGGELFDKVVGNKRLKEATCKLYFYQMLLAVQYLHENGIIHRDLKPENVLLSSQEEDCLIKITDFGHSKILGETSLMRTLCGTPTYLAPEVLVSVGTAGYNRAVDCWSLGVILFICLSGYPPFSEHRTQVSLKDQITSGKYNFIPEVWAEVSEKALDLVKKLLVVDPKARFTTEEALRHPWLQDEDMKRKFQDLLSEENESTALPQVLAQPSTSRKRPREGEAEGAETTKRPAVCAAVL", "description": "as §1"}, "EGFR(T790M,L858R)(h)": {"molecular_target": "T6, EGFR(T790M,L858R)(h) (Homo sapiens, UniProt P00533, L858R/T790M)", "T6 construct": "purchased Eurofins Discovery Services (KinaseProfiler)", "description": "as §1"}, "Itk(h)": {"molecular_target": "T7, Itk(h) (Homo sapiens, UniProt Q08881)", "T7 construct": "purchased Eurofins Discovery Services (KinaseProfiler)", "description": "as §1"}, "MAPK1(h)": {"molecular_target": "T8, MAPK1(h) (Homo sapiens, UniProt P27361)", "T8 construct": "purchased Eurofins Discovery Services (KinaseProfiler)", "description": "as §1"}, "MEKK3(h)": {"molecular_target": "T9, MEKK3(h) (Homo sapiens, UniProt Q99759)", "T9 construct": "purchased Eurofins Discovery Services (KinaseProfiler)", "description": "as §1"}, "MKK6(h)": {"molecular_target": "T10, MKK6(h) (Homo sapiens, UniProt P52564)", "T10 construct": "purchased Eurofins Discovery Services (KinaseProfiler)", "description": "as §1"}, "MSK1(h)": {"molecular_target": "T11, MSK1(h) (Homo sapiens, UniProt O75582)", "T11 construct": "purchased Eurofins Discovery Services (KinaseProfiler)", "description": "as §1"}, "MST1(h)": {"molecular_target": "T12, MST1(h) (Homo sapiens, UniProt Q13043)", "T12 construct": "purchased Eurofins Discovery Services (KinaseProfiler)", "description": "as §1"}, "MST4(h)": {"molecular_target": "T13, MST4(h) (Homo sapiens, UniProt Q9P289)", "T13 construct": "purchased Eurofins Discovery Services (KinaseProfiler)", "description": "as §1"}, "NEK6(h)": {"molecular_target": "T14, NEK6(h) (Homo sapiens, UniProt Q9HC98)", "T14 construct": "purchased Eurofins Discovery Services (KinaseProfiler)", "description": "as §1"}, "NEK7(h)": {"molecular_target": "T15, NEK7(h) (Homo sapiens, UniProt Q8TDX7)", "T15 construct": "purchased Eurofins Discovery Services (KinaseProfiler)", "description": "as §1"}, "PAK3(h)": {"molecular_target": "T16, PAK3(h) (Homo sapiens, UniProt O75914)", "T16 construct": "purchased Eurofins Discovery Services (KinaseProfiler)", "description": "as §1"}, "PAK4(h)": {"molecular_target": "T17, PAK4(h) (Homo sapiens, UniProt O96013)", "T17 construct": "purchased Eurofins Discovery Services (KinaseProfiler)", "description": "as §1"}, "PDK1(h)": {"molecular_target": "T18, PDK1(h) (Homo sapiens, UniProt O15530)", "T18 construct": "purchased Eurofins Discovery Services (KinaseProfiler)", "description": "as §1"}, "[1]": {"molecular_target": "T19, PI3 Kinase (p110a(H1047R)/p85a)(h) (Homo sapiens, UniProt P42336, H1047R)", "T19 construct": "purchased Eurofins Discovery Services (KinaseProfiler)", "T19 sequence (P42336 whole entry H1047R)": "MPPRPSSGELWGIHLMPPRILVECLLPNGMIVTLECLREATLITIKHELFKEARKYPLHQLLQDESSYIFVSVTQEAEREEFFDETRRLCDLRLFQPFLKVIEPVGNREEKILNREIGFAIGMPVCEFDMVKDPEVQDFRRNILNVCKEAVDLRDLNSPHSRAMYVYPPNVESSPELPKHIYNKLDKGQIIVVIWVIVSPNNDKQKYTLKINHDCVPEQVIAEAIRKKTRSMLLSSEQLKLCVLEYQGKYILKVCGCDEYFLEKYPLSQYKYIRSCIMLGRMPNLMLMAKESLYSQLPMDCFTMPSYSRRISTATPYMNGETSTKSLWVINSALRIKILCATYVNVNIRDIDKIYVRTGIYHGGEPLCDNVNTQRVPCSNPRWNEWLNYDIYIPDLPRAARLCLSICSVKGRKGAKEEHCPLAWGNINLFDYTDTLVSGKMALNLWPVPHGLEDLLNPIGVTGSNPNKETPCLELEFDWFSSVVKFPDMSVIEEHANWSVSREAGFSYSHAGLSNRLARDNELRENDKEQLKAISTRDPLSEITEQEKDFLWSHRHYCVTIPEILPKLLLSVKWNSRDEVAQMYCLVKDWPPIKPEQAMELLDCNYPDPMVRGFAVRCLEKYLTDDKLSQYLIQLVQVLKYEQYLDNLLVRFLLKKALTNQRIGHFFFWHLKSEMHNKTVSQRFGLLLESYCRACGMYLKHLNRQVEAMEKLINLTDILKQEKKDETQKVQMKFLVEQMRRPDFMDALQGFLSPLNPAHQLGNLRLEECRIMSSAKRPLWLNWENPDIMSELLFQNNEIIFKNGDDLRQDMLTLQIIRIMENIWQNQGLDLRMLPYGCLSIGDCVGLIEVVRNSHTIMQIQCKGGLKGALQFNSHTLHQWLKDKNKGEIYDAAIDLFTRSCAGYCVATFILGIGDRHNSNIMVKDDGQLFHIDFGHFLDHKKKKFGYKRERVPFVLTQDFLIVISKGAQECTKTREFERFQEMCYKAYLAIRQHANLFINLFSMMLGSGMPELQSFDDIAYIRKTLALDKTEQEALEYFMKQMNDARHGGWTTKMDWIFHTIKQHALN", "T19 sequence (P27986 whole entry partner)": "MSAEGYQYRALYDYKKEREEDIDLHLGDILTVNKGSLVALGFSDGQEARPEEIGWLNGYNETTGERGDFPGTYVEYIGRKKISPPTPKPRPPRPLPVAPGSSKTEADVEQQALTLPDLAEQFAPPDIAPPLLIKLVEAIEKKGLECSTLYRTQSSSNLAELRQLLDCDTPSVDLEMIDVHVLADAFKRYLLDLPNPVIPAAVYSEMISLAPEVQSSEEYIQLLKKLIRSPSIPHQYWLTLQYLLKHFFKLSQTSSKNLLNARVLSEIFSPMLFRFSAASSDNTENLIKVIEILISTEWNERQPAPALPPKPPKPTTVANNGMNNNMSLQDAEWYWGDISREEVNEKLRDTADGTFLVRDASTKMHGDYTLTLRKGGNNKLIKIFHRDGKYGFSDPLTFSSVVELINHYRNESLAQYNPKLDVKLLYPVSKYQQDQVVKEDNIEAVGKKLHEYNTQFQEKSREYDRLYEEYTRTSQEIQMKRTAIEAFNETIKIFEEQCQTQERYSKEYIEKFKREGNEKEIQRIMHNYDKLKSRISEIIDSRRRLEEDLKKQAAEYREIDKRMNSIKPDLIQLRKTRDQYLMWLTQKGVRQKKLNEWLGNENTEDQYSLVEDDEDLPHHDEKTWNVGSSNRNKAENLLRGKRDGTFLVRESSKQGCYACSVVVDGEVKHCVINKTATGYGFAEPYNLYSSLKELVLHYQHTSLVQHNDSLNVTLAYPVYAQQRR", "description": "as §1"}, "[2]": {"molecular_target": "T20, PI3 Kinase (p110a/p85a)(h) (Homo sapiens, UniProt P42336)", "T20 construct": "purchased Eurofins Discovery Services (KinaseProfiler)", "description": "as §1"}, "PKBα(h)": {"molecular_target": "T21, PKBα(h) (Homo sapiens, UniProt P31749)", "T21 construct": "purchased Eurofins Discovery Services (KinaseProfiler)", "description": "as §1"}, "PKCβII(h)": {"molecular_target": "T22, PKCβII(h) (Homo sapiens, UniProt P05771)", "T22 construct": "purchased Eurofins Discovery Services (KinaseProfiler)", "T22 sequence (P05771 1-673 isoform P05771-2)": "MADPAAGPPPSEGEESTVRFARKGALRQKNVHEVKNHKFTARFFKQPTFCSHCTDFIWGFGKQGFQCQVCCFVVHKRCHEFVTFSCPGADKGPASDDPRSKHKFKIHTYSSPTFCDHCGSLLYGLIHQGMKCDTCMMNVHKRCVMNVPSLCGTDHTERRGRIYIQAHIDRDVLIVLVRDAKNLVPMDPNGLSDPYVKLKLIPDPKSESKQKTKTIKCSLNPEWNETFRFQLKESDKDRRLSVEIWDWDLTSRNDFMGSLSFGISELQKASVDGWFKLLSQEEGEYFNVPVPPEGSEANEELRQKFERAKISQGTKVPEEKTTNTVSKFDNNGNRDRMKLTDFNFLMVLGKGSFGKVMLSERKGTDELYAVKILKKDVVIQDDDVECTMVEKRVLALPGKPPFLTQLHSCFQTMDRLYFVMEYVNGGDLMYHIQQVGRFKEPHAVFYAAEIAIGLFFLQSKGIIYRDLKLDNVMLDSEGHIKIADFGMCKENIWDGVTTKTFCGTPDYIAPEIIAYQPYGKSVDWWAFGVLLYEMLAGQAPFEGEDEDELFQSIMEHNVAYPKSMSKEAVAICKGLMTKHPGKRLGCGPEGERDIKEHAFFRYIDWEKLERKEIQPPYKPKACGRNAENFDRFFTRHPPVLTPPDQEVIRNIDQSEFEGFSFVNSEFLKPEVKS", "description": "as §1"}, "PKCε(h)": {"molecular_target": "T23, PKCε(h) (Homo sapiens, UniProt Q02156)", "T23 construct": "purchased Eurofins Discovery Services (KinaseProfiler)", "description": "as §1"}, "PKCι(h)": {"molecular_target": "T24, PKCι(h) (Homo sapiens, UniProt P41743)", "T24 construct": "purchased Eurofins Discovery Services (KinaseProfiler)", "description": "as §1"}, "PKD2(h)": {"molecular_target": "T25, PKD2(h) (Homo sapiens, UniProt Q9BZL6)", "T25 construct": "purchased Eurofins Discovery Services (KinaseProfiler)", "description": "as §1"}, "PKG1α(h)": {"molecular_target": "T26, PKG1α(h) (Homo sapiens, UniProt Q13976)", "T26 construct": "purchased Eurofins Discovery Services (KinaseProfiler)", "description": "as §1"}, "PRAK(h)": {"molecular_target": "T27, PRAK(h) (Homo sapiens, UniProt Q8IW41)", "T27 construct": "purchased Eurofins Discovery Services (KinaseProfiler)", "description": "as §1"}, "Pim-2(h)": {"molecular_target": "T28, Pim-2(h) (Homo sapiens, UniProt Q9P1W9)", "T28 construct": "purchased Eurofins Discovery Services (KinaseProfiler)", "description": "as §1"}, "ROCK-I(h)": {"molecular_target": "T29, ROCK-I(h) (Homo sapiens, UniProt Q13464)", "T29 construct": "purchased Eurofins Discovery Services (KinaseProfiler)", "description": "as §1"}, "Rsk1(h)": {"molecular_target": "T30, Rsk1(h) (Homo sapiens, UniProt Q15418)", "T30 construct": "purchased Eurofins Discovery Services (KinaseProfiler)", "description": "as §1"}, "SAPK2b(h)": {"molecular_target": "T31, SAPK2b(h) (Homo sapiens, UniProt Q15759)", "T31 construct": "purchased Eurofins Discovery Services (KinaseProfiler)", "description": "as §1"}, "TSSK1(h)": {"molecular_target": "T32, TSSK1(h) (Homo sapiens, UniProt Q9BXA7)", "T32 construct": "purchased Eurofins Discovery Services (KinaseProfiler)", "description": "as §1"}, "TYK2(h)": {"molecular_target": "T33, TYK2(h) (Homo sapiens, UniProt P29597)", "T33 construct": "purchased Eurofins Discovery Services (KinaseProfiler)", "description": "as §1"}, "Tec(h) activated": {"molecular_target": "T34, Tec(h) activated (Homo sapiens, UniProt P42680)", "T34 construct": "purchased Eurofins Discovery Services (KinaseProfiler)", "description": "as §1"}, "ULK2(h)": {"molecular_target": "T35, ULK2(h) (Homo sapiens, UniProt Q8IYT8)", "T35 construct": "purchased Eurofins Discovery Services (KinaseProfiler)", "description": "as §1"}, "ZIPK(h)": {"molecular_target": "T36, ZIPK(h) (Homo sapiens, UniProt O43293)", "T36 construct": "purchased Eurofins Discovery Services (KinaseProfiler)", "description": "as §1"}, "cKit(D816V)(h)": {"molecular_target": "T37, cKit(D816V)(h) (Homo sapiens, UniProt P10721, D816V)", "T37 construct": "purchased Eurofins Discovery Services (KinaseProfiler)", "description": "as §1"}}}
{"smiles": "COc1cc(OC)cc(N(CCN[C@H](C)CO)c2ccc3ncc(-c4cnn(C)c4)c(=O)n3c2)c1", "note": "[RK-019, (R)-7-((3,5-dimethoxyphenyl) (2-((1-hydroxypropan-2-yl)amino)ethyl)amino)-3-(1-methyl-1H-pyrazol-4-yl)-4H-pyrido [1,2-a]pyrimidin-4-one]", "values": [{"measurement": "activity at 1 µM", "setting": "AAK1(h)", "value": 91, "unit": "%"}, {"measurement": "activity at 1 µM", "setting": "ALK(h)", "value": 85, "unit": "%"}, {"measurement": "activity at 1 µM", "setting": "ARK5(h)", "value": 146, "unit": "%"}, {"measurement": "activity at 1 µM", "setting": "Bmx(h)", "value": 64, "unit": "%"}, {"measurement": "activity at 1 µM", "setting": "CHK2(I157T)(h)", "value": 100, "unit": "%"}, {"measurement": "activity at 1 µM", "setting": "EGFR(T790M,L858R)(h)", "value": 92, "unit": "%"}, {"measurement": "activity at 1 µM", "setting": "Itk(h)", "value": 104, "unit": "%"}, {"measurement": "activity at 1 µM", "setting": "MAPK1(h)", "value": 116, "unit": "%"}, {"measurement": "activity at 1 µM", "setting": "MEKK3(h)", "value": 103, "unit": "%"}, {"measurement": "activity at 1 µM", "setting": "MKK6(h)", "value": 83, "unit": "%"}, {"measurement": "activity at 1 µM", "setting": "MSK1(h)", "value": 95, "unit": "%"}, {"measurement": "activity at 1 µM", "setting": "MST1(h)", "value": 121, "unit": "%"}, {"measurement": "activity at 1 µM", "setting": "MST4(h)", "value": 90, "unit": "%"}, {"measurement": "activity at 1 µM", "setting": "NEK6(h)", "value": 97, "unit": "%"}, {"measurement": "activity at 1 µM", "setting": "NEK7(h)", "value": 99, "unit": "%"}, {"measurement": "activity at 1 µM", "setting": "PAK3(h)", "value": 97, "unit": "%"}, {"measurement": "activity at 1 µM", "setting": "PAK4(h)", "value": 82, "unit": "%"}, {"measurement": "activity at 1 µM", "setting": "PDK1(h)", "value": 110, "unit": "%"}, {"measurement": "activity at 1 µM", "setting": "[1]", "value": 100, "unit": "%"}, {"measurement": "activity at 1 µM", "setting": "[2]", "value": 101, "unit": "%"}, {"measurement": "activity at 1 µM", "setting": "PKBα(h)", "value": 102, "unit": "%"}, {"measurement": "activity at 1 µM", "setting": "PKCβII(h)", "value": 111, "unit": "%"}, {"measurement": "activity at 1 µM", "setting": "PKCε(h)", "value": 88, "unit": "%"}, {"measurement": "activity at 1 µM", "setting": "PKCι(h)", "value": 100, "unit": "%"}, {"measurement": "activity at 1 µM", "setting": "PKD2(h)", "value": 98, "unit": "%"}, {"measurement": "activity at 1 µM", "setting": "PKG1α(h)", "value": 110, "unit": "%"}, {"measurement": "activity at 1 µM", "setting": "PRAK(h)", "value": 95, "unit": "%"}, {"measurement": "activity at 1 µM", "setting": "Pim-2(h)", "value": 98, "unit": "%"}, {"measurement": "activity at 1 µM", "setting": "ROCK-I(h)", "value": 101, "unit": "%"}, {"measurement": "activity at 1 µM", "setting": "Rsk1(h)", "value": 120, "unit": "%"}, {"measurement": "activity at 1 µM", "setting": "SAPK2b(h)", "value": 94, "unit": "%"}, {"measurement": "activity at 1 µM", "setting": "TSSK1(h)", "value": 109, "unit": "%"}, {"measurement": "activity at 1 µM", "setting": "TYK2(h)", "value": 96, "unit": "%"}, {"measurement": "activity at 1 µM", "setting": "Tec(h) activated", "value": 96, "unit": "%"}, {"measurement": "activity at 1 µM", "setting": "ULK2(h)", "value": 107, "unit": "%"}, {"measurement": "activity at 1 µM", "setting": "ZIPK(h)", "value": 96, "unit": "%"}, {"measurement": "activity at 1 µM", "setting": "cKit(D816V)(h)", "value": 93, "unit": "%"}]}
